Test results from the NIST ThermoML archive (doi:10.1016/j.jct.2010.12.027).

Tests used:
[1] = 298.15 K, 101 kPa, Liquid; for viscosity: Capillary tube (Ostwald / Ubbelohde) method; for mass density: Vibrating tube method
[2] = xn = mol fraction of the nth substance listed; conditions: 298.15 K, 101 kPa, Liquid; for viscosity: Capillary tube (Ostwald / Ubbelohde) method; for mass density: Vibrating tube method

CCCCN [1-butanamine]
[1]
Conditions	mass density [kg/m3]	viscosity [mPa·s]
–	732.88	0.476

CCCCN [1-butanamine] + CCCCCCn1cc[n+](C)c1.F[B-](F)(F)F
[2]
Conditions	mass density [kg/m3]	viscosity [mPa·s]
x2 = 0	732.88	0.476
x2 = 0.0492	778.02	0.889
x2 = 0.0994	809.01	1.433
x2 = 0.1997	888.25	3.137
x2 = 0.3002	943.91	6.183
x2 = 0.3525	968.66	8.532
x2 = 0.4013	989.49	11.16
x2 = 0.4492	1008.25	14.68
x2 = 0.5037	1027.64	19.56
x2 = 0.5524	1043.6	25.39
x2 = 0.6009	1058.22	32.05
x2 = 0.7036	1085.8	53.63
x2 = 0.7873	1105.23	76.62
x2 = 0.8787	1124.35	117.48

CCCCCCn1cc[n+](C)c1.F[B-](F)(F)F [1-hexyl-3-methylimidazolium tetrafluoroborate]
[1]
Conditions	mass density [kg/m3]	viscosity [mPa·s]
–	1146.7	195.37

CCCCCCn1cc[n+](C)c1.F[B-](F)(F)F [1-hexyl-3-methylimidazolium tetrafluoroborate] + C1CCOC1
[2]
Conditions	mass density [kg/m3]	viscosity [mPa·s]
x1 = 0.0498	922.89	0.891
x1 = 0.1008	956.61	1.564
x1 = 0.203	1007.44	3.869
x1 = 0.2976	1041.06	7.658
x1 = 0.3461	1054.83	10.44
x1 = 0.3965	1067.37	13.93
x1 = 0.4457	1078.09	18.37
x1 = 0.5003	1088.63	24.9
x1 = 0.5548	1097.81	33.17
x1 = 0.6083	1106.02	42.68
x1 = 0.7025	1118.37	65.77
x1 = 0.7992	1129	97.79
x1 = 0.8925	1137.77	141.64
x1 = 1	1146.7	195.37

CCCCCCn1cc[n+](C)c1.F[B-](F)(F)F [1-hexyl-3-methylimidazolium tetrafluoroborate] + CCC(C)=O
[2]
Conditions	mass density [kg/m3]	viscosity [mPa·s]
x1 = 0.0492	845.71	0.6
x1 = 0.0988	889.12	0.914
x1 = 0.2011	946.15	2.059
x1 = 0.2989	991.57	4.063
x1 = 0.3482	1010.53	5.578
x1 = 0.3972	1027.28	7.507
x1 = 0.4605	1046.8	11.08
x1 = 0.4981	1057.05	13.67
x1 = 0.55	1070.3	18.57
x1 = 0.6057	1082.75	24.46
x1 = 0.7054	1102.84	43.38
x1 = 0.7955	1119.38	69.4
x1 = 0.8931	1132.37	110.34
x1 = 1	1146.7	195.37

CCCCCCn1cc[n+](C)c1.F[B-](F)(F)F [1-hexyl-3-methylimidazolium tetrafluoroborate] + CCCCN
[2], x1 = 1
Conditions	mass density [kg/m3]	viscosity [mPa·s]
–	1146.7	195.37

CCCCCCn1cc[n+](C)c1.F[B-](F)(F)F [1-hexyl-3-methylimidazolium tetrafluoroborate] + CCOC(C)=O
[2]
Conditions	mass density [kg/m3]	viscosity [mPa·s]
x1 = 0.0498	925.56	0.738
x1 = 0.1	952.69	1.188
x1 = 0.2027	997.78	2.674
x1 = 0.302	1031.52	5.221
x1 = 0.3475	1044.35	6.846
x1 = 0.3983	1057.37	9.328
x1 = 0.4488	1068.89	12.31
x1 = 0.501	1079.8	16.47
x1 = 0.5487	1088.62	21.49
x1 = 0.6022	1097.8	28.48
x1 = 0.7075	1113.73	48.11
x1 = 0.8066	1126.46	80.43
x1 = 0.8908	1135.69	119.88
x1 = 1	1146.7	195.37

CCC(C)=O [butanone]
[1]
Conditions	mass density [kg/m3]	viscosity [mPa·s]
–	799.87	0.388

CCC(C)=O [butanone] + CCCCCCn1cc[n+](C)c1.F[B-](F)(F)F
[2], x2 = 0
Conditions	mass density [kg/m3]	viscosity [mPa·s]
–	799.87	0.388

CCOC(C)=O [ethyl acetate]
[1]
Conditions	mass density [kg/m3]	viscosity [mPa·s]
–	894.48	0.437

CCOC(C)=O [ethyl acetate] + CCCCCCn1cc[n+](C)c1.F[B-](F)(F)F
[2], x2 = 0
Conditions	mass density [kg/m3]	viscosity [mPa·s]
–	894.48	0.437

C1CCOC1 [tetrahydrofuran]
[1]
Conditions	mass density [kg/m3]	viscosity [mPa·s]
–	882.13	0.475

C1CCOC1 [tetrahydrofuran] + CCCCCCn1cc[n+](C)c1.F[B-](F)(F)F
[2], x2 = 0
Conditions	mass density [kg/m3]	viscosity [mPa·s]
–	882.13	0.475
